Measured values reported in patent publication US20210255193A1, “LYSINE REACTIVE PROBES AND USES THEREOF” (The Scripps Research Institute, priority 2017, published 2021).

How the values were obtained:
Test in all cases: competitive isoTOP-ABPP
Format in all cases: binding
[1] = target: T1, RINT1 RAD50-interacting protein 1 (Homo sapiens, UniProt Q6NUQ1); details: for isoTOP-ABPP ratio, lysine Q6NUQ1_K771: 50 uM_231_sol_in vitro
T1 construct: isoTOP-ABPP experiments performed in cell lysates (in vitro); endogenous in cells; host or cells: soluble proteome of human cancer cell lines (MDA-MB-231; Ramos and Jurkat also prepared)
Procedure, shortened: (§1)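 Probe: STP-alkyne, 0.1 mM, 1 h RT, after fragment pretreatment of lysate (esters 50 μM; guanidinylators 100 μM). Tags: light = compound, heavy = DMSO, via CuAAC. Replicates averaged if SD <60% of mean; otherwise lowest ratio used when any R <4.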

[2] = target: T2, TRMT10C Mitochondrial ribonuclease P protein 1 (Homo sapiens, UniProt Q7L0Y3)
T2 construct: isoTOP-ABPP experiments performed in cell lysates (in vitro); endogenous in cells; host or cells: soluble proteome of human cancer cell lines (MDA-MB-231; Ramos and Jurkat also prepared)
T2 sequence (Q7L0Y3 40-403): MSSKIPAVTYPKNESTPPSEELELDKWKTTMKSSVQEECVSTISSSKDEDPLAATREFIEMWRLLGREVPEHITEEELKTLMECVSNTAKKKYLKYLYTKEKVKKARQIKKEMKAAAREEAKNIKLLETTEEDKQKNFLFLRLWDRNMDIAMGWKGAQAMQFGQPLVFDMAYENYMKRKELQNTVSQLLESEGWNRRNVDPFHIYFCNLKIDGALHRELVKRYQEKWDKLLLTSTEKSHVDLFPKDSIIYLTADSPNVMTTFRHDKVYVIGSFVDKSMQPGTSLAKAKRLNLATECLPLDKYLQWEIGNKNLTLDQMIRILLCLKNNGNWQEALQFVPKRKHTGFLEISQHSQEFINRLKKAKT
Procedure, shortened: as §1

ADK Adenosine kinase = target: T3, ADK Adenosine kinase (Homo sapiens, UniProt P55263); parameters: key to isoTOP-ABPP reactivity ratio at lysine P55263_K88: R = MS1 peak area ratio, DMSO (heavy) / compound-treated (light); details: for isoTOP-ABPP ratio, lysine P55263_K88: 50 uM_231_sol_in vitro
T3 construct: isoTOP-ABPP experiments performed in cell lysates (in vitro); endogenous in cells; host or cells: soluble proteome of human cancer cell lines (MDA-MB-231, Ramos, Jurkat)
Procedure: (§2) In vitro covalent fragment treatment for isoTOP-ABPP. All compounds were made up as solutions in DMSO (100×) and were used at a final concentration of 50 μM for activated esters and 100 μM for guanidinylating agents. For each profiling sample, 0.5 ml of lysate was treated with 5 μl of the 100× compound stock solution or 5 μl of DMSO. Samples were treated with activated esters for
(§3) STP-alkyne labeling and click chemistry. For concentration-dependent reactivity measurements by isoTOP-ABPP, 0.5 ml proteome aliquots were treated at ambient temperature with 1 mM STP-alkyne 1 (5 μl of 100 mM stock in DMSO) and 0.1 mM STP alkyne 1 (5 μl of 10 mM stock in DMSO), respectively. For competitive isoTOP-ABPP, after in vitro fragment treatment (detailed above), the samples were labeled for 1 h at ambient temperature with 0.1 mM STP-alkyne 1 (5 μl of 10 mM stock in DMSO). Samples were conjugated by copper-mediated azide-alkyne cycloaddition (CuAAC) to either the light (1 mM STP-alkyne or fragment treated) or heavy (0.1 mM STP-alkyne or DMSO treated) TEV tags (10 μl of 5 mM stocks in DMSO, final concentration=100 μM) using tris(2-carboxyethyl)phosphine hydrochloride
(§4) R value calculation and processing. The ratios of light and heavy MS1 peaks for each unique peptide were quantified with a CIMAGE software using default parameters (3 MS1 acquisitions per peak and signal to noise threshold set to 2.5). For reactivity measurements by isoTOP-ABPP, the R value was calculated from the ratio of MS1 peak areas, comparing the 1 mM STP alkyne sample (light TEV tag) with the 0.1 mM STP alkyne sample (heavy TEV tag). For competitive isoTOP-ABPP, the R value was calculated from the ratio of MS1 peak areas, comparing the DMSO treated sample (heavy TEV tag) with the compound treated sample (light TEV tag). […] Ratios for unique peptide entries are calculated for each experiment; overlapping peptides with the same modified lysine (for example, different charge states, MudPIT chromatographic steps or tryptic termini) are grouped together and the median ratio is reported as the final ratio (R). The peptide ratios reported by CIMAGE were further filtered to ensure the removal or correction of low-quality ratios in each individual data set. The quality filters applied were the following: removal of half tryptic peptides; for ratios with high standard deviations from the median (90% of the median or above) the lowest ratio was taken instead of the median; removal of peptides with R=20 and only a single MS2 event triggered during the elution of the parent ion; manual annotation of all the peptides with ratios of 20, removing any peptides with low quality elution profiles that remained after the previous curation steps (only done for competitive isoTOP-ABPP).
(§5) Cross-data processing for fragment screening. For compound treated samples, biological replicates of the same condition were averaged, if the standard deviation was below 60% of the mean; otherwise, for lysines with at least one R value <4 for a particular compound, the lowest value of the ratio set was taken. For lysines, where all R values for a particular compound were ≥4, the average was reported. For peptides containing several possible modified lysines, the lysine with the highest number of quantification events was used for analysis and the remaining, redundant peptides were reported as alternative modification sites. Peptides included in the aggregate dataset (those used for further bioinformatics and statistical analyses) were required to have been quantified in 2 experiments for competitive isoTOP-ABPP. Lysines were categorized as liganded, if they had at least one ratio R≥4 (hit fragments). For liganded lysines with R=20 for all liganding events, lysines were required to have been quantified with R=20 in two separate experiments and were further required to have been quantified with R<20 in one additional experiment.

[3] = target: T4, ECH1 Delta(3,5)-Delta(2,4)-dienoyl-CoA isomerase, mitochondrial (Homo sapiens, UniProt Q13011); parameters: key to isoTOP-ABPP reactivity ratio at lysine Q13011_K112: R = MS1 peak area ratio, DMSO (heavy) / compound-treated (light); capped at 20; details: for isoTOP-ABPP ratio, lysine Q13011_K112: 50 uM_231_sol_in vitro
T4 construct: isoTOP-ABPP experiments performed in cell lysates (in vitro); endogenous in cells; host or cells: soluble proteome of human cancer cell lines (MDA-MB-231, Ramos, Jurkat)
T4 sequence (Q13011 34-328): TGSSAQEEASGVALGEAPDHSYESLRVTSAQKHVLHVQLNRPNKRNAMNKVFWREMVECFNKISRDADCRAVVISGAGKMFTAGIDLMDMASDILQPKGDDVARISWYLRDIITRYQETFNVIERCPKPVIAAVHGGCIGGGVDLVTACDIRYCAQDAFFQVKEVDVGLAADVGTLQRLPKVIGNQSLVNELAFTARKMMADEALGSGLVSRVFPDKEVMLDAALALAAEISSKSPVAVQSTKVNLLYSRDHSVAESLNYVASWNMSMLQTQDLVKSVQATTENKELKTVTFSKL
Procedure: as §2, §3, §4, §5

[4] = target: T5, ISOC2 Isochorismatase domain-containing protein 2, mitochondrial (Homo sapiens, UniProt Q96AB3); parameters: key to isoTOP-ABPP reactivity ratio at lysine Q96AB3_K178: R = MS1 peak area ratio, DMSO (heavy) / compound-treated (light); capped at 20; details: for isoTOP-ABPP ratio, lysine Q96AB3_K178: 50 uM_231_sol_in vitro
T5 construct: isoTOP-ABPP experiments performed in cell lysates (in vitro); endogenous in cells; host or cells: soluble proteome of human cancer cell lines (MDA-MB-231; Ramos and Jurkat also prepared)
T5 sequence (Q96AB3 1-205): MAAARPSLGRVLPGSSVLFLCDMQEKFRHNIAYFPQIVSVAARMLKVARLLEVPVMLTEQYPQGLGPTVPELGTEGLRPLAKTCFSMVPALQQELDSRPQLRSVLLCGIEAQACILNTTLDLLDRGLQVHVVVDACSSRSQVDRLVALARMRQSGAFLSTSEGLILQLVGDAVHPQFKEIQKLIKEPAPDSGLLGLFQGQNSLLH
Procedure: as §2, §3, §4, §5

T1 sequence (Q6NUQ1 whole entry): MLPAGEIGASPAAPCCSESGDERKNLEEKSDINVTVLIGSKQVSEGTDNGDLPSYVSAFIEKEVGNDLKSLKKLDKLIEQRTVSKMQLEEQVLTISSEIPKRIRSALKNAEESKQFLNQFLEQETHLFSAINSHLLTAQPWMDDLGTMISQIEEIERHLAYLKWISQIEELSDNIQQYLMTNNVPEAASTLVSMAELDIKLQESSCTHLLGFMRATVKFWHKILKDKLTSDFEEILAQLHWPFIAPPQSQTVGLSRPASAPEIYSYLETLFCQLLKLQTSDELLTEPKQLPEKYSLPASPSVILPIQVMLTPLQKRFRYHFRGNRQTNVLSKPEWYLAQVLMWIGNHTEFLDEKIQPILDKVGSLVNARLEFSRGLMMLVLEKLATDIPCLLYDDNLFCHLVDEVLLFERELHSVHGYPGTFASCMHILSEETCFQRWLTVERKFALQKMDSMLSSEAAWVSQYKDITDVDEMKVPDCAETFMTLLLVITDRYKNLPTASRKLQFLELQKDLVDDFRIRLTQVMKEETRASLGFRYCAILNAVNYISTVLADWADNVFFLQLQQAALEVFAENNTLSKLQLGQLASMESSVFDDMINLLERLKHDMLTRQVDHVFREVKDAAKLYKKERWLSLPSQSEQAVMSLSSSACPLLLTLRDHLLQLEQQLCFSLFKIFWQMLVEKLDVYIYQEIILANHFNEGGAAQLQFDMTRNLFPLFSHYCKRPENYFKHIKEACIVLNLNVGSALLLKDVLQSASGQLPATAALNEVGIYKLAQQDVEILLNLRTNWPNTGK
T3 sequence (P55263 whole entry): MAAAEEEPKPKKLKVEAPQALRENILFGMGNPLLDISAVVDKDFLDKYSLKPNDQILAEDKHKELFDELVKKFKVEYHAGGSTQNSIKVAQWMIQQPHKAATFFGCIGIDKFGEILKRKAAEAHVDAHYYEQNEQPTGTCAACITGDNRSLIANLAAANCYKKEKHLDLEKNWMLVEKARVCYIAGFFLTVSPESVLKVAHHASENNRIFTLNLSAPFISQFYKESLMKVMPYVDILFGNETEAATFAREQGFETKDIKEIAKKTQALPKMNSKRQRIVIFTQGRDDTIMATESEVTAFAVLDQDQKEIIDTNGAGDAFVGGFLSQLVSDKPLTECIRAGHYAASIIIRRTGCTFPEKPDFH

For O=C(Oc1c(F)c(F)c(C(F)(F)F)c(F)c1F)c1cc(C(F)(F)F)cc(C(F)(F)F)c1 [fragment 47, 2,3,5,6-Tetrafluoro-4-(trifluoromethyl)phenyl 3,5-bis(trifluoromethyl)benzoate], the “isoTOP-ABPP ratio, lysine Q6NUQ1_K771” value [1] was 1.2, the “isoTOP-ABPP ratio, lysine Q7L0Y3_K325” value ([2]; 50 uM_231_sol_in vitro) was 1.1 and the “isoTOP-ABPP ratio, lysine P55263_K88” value (ADK Adenosine kinase) was 0.8. For the same compound, the “isoTOP-ABPP ratio, lysine Q13011_K112” value [3] was 1.0 and the “isoTOP-ABPP ratio, lysine Q96AB3_K178” value [4] was 1.2.
With O=C(CC12CC3CC(CC(C3)C1)C2)Oc1ccc([N+](=O)[O-])cc1[N+](=O)[O-] [fragment 38, 2,4-Dinitrophenyl 2-(adamantan-1-yl)acetate] the “isoTOP-ABPP ratio (R) at liganded lysine Q6NUQ1_K771” value ([1]; 50 uM, in vitro, sol, 231) was 1.2, the “isoTOP-ABPP ratio (R) at liganded lysine Q7L0Y3_K325” value ([2]; 50 uM, in vitro, sol, 231) was 0.8 and the “isoTOP-ABPP ratio (R) at liganded lysine P55263_K88” value (ADK Adenosine kinase; 50 uM, in vitro, sol, 231) was 0.9. For the same compound, the “isoTOP-ABPP ratio (R) at liganded lysine Q13011_K112” value ([3]; 50 uM, in vitro, sol, 231) was 0.9 and the “isoTOP-ABPP ratio (R) at liganded lysine Q96AB3_K178” value ([4]; 50 uM, in vitro, sol, 231) was 0.9.
In the case of O=C(CN1C(=O)c2ccccc2C1=O)Oc1c(F)c(F)c(F)c(F)c1F [fragment 27, Pentafluorophenyl 2-(1,3-dioxoisoindolin-2-yl)acetate], the “isoTOP-ABPP reactivity ratio at lysine Q6NUQ1_K771” value ([1]; 50 uM, 231 sol, in vitro) is reported as 1.1, the “isoTOP-ABPP reactivity ratio at lysine P55263_K88” value (ADK Adenosine kinase; 50 uM, 231 sol, in vitro) is reported as 0.8 and the “isoTOP-ABPP reactivity ratio at lysine Q13011_K112” value ([3]; 50 uM, 231 sol, in vitro) is reported as 2.7. For the same compound, the “isoTOP-ABPP reactivity ratio at lysine Q96AB3_K178” value ([4]; 50 uM, 231 sol, in vitro) was 1.3.
For O=C(CCc1cn(-c2ccccc2)nc1-c1ccccc1)Oc1c(F)c(F)c(F)c(F)c1F [fragment 19, Pentafluorophenyl 3-(1,3-diphenyl-1H-pyrazol-4-yl)propanoate], the “R value (DMSO/fragment) for probe 1 labeling” value (from here on “R value (DMSO/fragment)”) ([1]; Q6NUQ1_K771, 50 uM, 231 sol, in vitro) was 1.2, the “R value (DMSO/fragment)” value (ADK Adenosine kinase; P55263_K88, 50 uM, 231 sol, in vitro) was 0.8 and the “R value (DMSO/fragment)” value ([3]; Q13011_K112, 50 uM, 231 sol, in vitro) was 4.7. For the same compound, the “R value (DMSO/fragment)” value ([4]; Q96AB3_K178, 50 uM, 231 sol, in vitro) was 1.2.
O=C(Oc1c(F)c(F)cc(F)c1F)c1cc(C(F)(F)F)cc(C(F)(F)F)c1 [fragment 48, 2,3,5,6-Tetrafluorophenyl 3,5-bis(trifluoromethyl)benzoate] was tested, and the “isoTOP-ABPP ratio, lysine Q6NUQ1_K771” value [1] was 4.8, the “isoTOP-ABPP ratio, lysine P55263_K88” value (ADK Adenosine kinase) was 0.9 and the “isoTOP-ABPP ratio, lysine Q13011_K112” value [3] was 1.5. The “isoTOP-ABPP ratio, lysine Q96AB3_K178” value [4] was 0.9.
For CCn1cc(C(=O)Oc2c(F)c(F)c(F)c(F)c2F)c(=O)c2ccc(C)nc21 [fragment 28, Pentafluorophenyl 1-ethyl-7-methyl-4-oxo-1,4-dihydro-1,8-naphthyridine-3-carboxylate], the “isoTOP-ABPP reactivity ratio at lysine Q6NUQ1_K771” value ([1]; 50 uM, 231 sol, in vitro) was 0.8, the “isoTOP-ABPP reactivity ratio at lysine P55263_K88” value (ADK Adenosine kinase; 50 uM, 231 sol, in vitro) was 0.8 and the “isoTOP-ABPP reactivity ratio at lysine Q13011_K112” value ([3]; 50 uM, 231 sol, in vitro) was 1.8. For the same compound, the “isoTOP-ABPP reactivity ratio at lysine Q96AB3_K178” value ([4]; 50 uM, 231 sol, in vitro) was 1.8.
In the case of O=C(Oc1c(F)c(F)c(F)c(F)c1F)C1CCN(C(=O)OCc2ccccc2)CC1 [fragment 24, 1-Benzyl 4-(pentafluorophenyl) piperidine-1,4-dicarboxylate], the “isoTOP-ABPP reactivity ratio at lysine Q6NUQ1_K771” value ([1]; 50 uM, 231 sol, in vitro) is reported as 1.0, the “isoTOP-ABPP reactivity ratio at lysine Q7L0Y3_K325” value ([2]; 50 uM, 231 sol, in vitro) is reported as 1.4 and the “isoTOP-ABPP reactivity ratio at lysine P55263_K88” value (ADK Adenosine kinase; 50 uM, 231 sol, in vitro) is reported as 1.0.
